According to the supplement of paper PMC10307832:

Key:
Assay in all cases: relative viability (nuclei count vs DMSO), 5 days (fraction); higher = more cells survive
[1] = test system: HCC-366
Procedure, shortened: (§1)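 Lung cancer cell lines were seeded in 1536-well plates and dosed by pin tool the next day, with either a single drug or a fixed anchor-drug dose combined with five library-drug doses (not always all listed) spaced in √10 steps. Five days later, one step fixed the cells and stained their nuclei (final 0.05% Triton X-100, 1% formaldehyde, 1 ug/ml Hoechst), and nuclei were counted on 4× images. Relative viability is the nuclei count in treated wells divided by the count in vehicle wells, and each value is the median of duplicate plates.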

[2] = test system: HCC-44
Procedure, shortened: as §1

[3] = test system: NCI-H1623
Procedure, shortened: as §1

[4] = test system: NCI-H522
Procedure, shortened: as §1

[5] = test system: NCI-H1437
Procedure, shortened: as §1

[6] = test system: NCI-H1648
Procedure, shortened: as §1

Question: Which relative viability ([1]; first compound 0.08 µM) does the source give for `C=C1C(=O)O[C@@H](CCCCCCCC)[C@@H]1C(=O)O` [C-75] + COc1cccc2cc(-c3nc([C@H]4CC[C@H](C(=O)O)CC4)n4ncnc(N)c34)[nH]c12 [OSI-027] (partner 0.5 µM) here?
Answer: Its relative viability is 1.06.

Question: And the relative viability ([1]; first compound 0.253 µM)?
Answer: Its relative viability is 1.31.

Question: And the relative viability ([1]; first compound 0.8 µM)?
Answer: The relative viability was 0.897.

Question: What about the relative viability ([1]; first compound 8 µM) of the same molecule?
Answer: The relative viability was 0.834.

Question: What about the relative viability ([2]; first compound 0.08 µM) of the same molecule?
Answer: Its relative viability is 0.675.

Question: What about the relative viability ([2]; first compound 0.253 µM) of the same molecule?
Answer: Its relative viability is 0.428.

Question: And the relative viability ([2]; first compound 0.8 µM)?
Answer: Its relative viability is 0.463.

Question: And the relative viability ([2]; first compound 2.53 µM)?
Answer: The relative viability was 0.353.

Question: And the relative viability ([2]; first compound 8 µM)?
Answer: The relative viability was 0.404.

Question: And the relative viability ([3]; first compound 0.08 µM)?
Answer: The relative viability was 0.463.

Question: What about the relative viability ([3]; first compound 0.253 µM) of the same molecule?
Answer: Its relative viability is 0.503.

Question: And the relative viability ([3]; first compound 0.8 µM)?
Answer: Its relative viability is 0.416.

Question: What about the relative viability ([3]; first compound 2.53 µM) of the same molecule?
Answer: Its relative viability is 0.38.

Question: What about the relative viability ([3]; first compound 8 µM) of the same molecule?
Answer: Its relative viability is 0.457.

Question: What about the relative viability ([4]; first compound 0.08 µM) of the same molecule?
Answer: The relative viability was 0.744.

Question: And the relative viability ([4]; first compound 0.253 µM)?
Answer: The relative viability was 0.819.

Question: And the relative viability ([4]; first compound 0.8 µM)?
Answer: Its relative viability is 0.753.

Question: And the relative viability ([4]; first compound 8 µM)?
Answer: The relative viability was 0.641.

Question: What about the relative viability ([5]; first compound 0.08 µM) of the same molecule?
Answer: Its relative viability is 0.842.

Question: What about the relative viability ([5]; first compound 0.253 µM) of the same molecule?
Answer: Its relative viability is 0.871.

Question: What about the relative viability ([5]; first compound 0.8 µM) of the same molecule?
Answer: Its relative viability is 0.867.

Question: And the relative viability ([5]; first compound 2.53 µM)?
Answer: The relative viability was 0.57.

Question: What about the relative viability ([5]; first compound 8 µM) of the same molecule?
Answer: The relative viability was 0.914.

Question: What about the relative viability ([6]; first compound 0.08 µM) of the same molecule?
Answer: The relative viability was 0.238.

Question: And the relative viability ([6]; first compound 0.253 µM)?
Answer: Its relative viability is 0.301.

Question: What about the relative viability ([6]; first compound 0.8 µM) of the same molecule?
Answer: Its relative viability is 0.276.

Question: And the relative viability ([6]; first compound 8 µM)?
Answer: Its relative viability is 0.267.

Question: Which results are given for `C=C1C(=O)O[C@@H](CCCCCCCC)[C@@H]1C(=O)O` [C-75] + Cc1cc(Nc2cc(N3CCN(C)CC3)nc(Sc3ccc(NC(=O)C4CC4)cc3)n2)n[nH]1 [Tozasertib] (partner 0.1 µM)?
Answer: relative viability ([1]; first compound 0.08 µM): 0.197; relative viability ([1]; first compound 0.253 µM): 0.151; relative viability ([1]; first compound 0.8 µM): 0.158; relative viability ([1]; first compound 8 µM): 0.115; relative viability ([2]; first compound 0.08 µM): 0.989; relative viability ([2]; first compound 0.253 µM): 0.942; relative viability ([2]; first compound 0.8 µM): 0.9; relative viability ([2]; first compound 2.53 µM): 0.878; relative viability ([2]; first compound 8 µM): 0.714; relative viability ([3]; first compound 0.08 µM): 0.471; relative viability ([3]; first compound 0.253 µM): 0.417; relative viability ([3]; first compound 0.8 µM): 0.477; relative viability ([3]; first compound 2.53 µM): 0.419; relative viability ([3]; first compound 8 µM): 0.461; relative viability ([4]; first compound 0.08 µM): 0.585; relative viability ([4]; first compound 0.253 µM): 0.598; relative viability ([4]; first compound 0.8 µM): 0.489; relative viability ([4]; first compound 8 µM): 0.497; relative viability ([5]; first compound 0.08 µM): 0.387; relative viability ([5]; first compound 0.253 µM): 0.462; relative viability ([5]; first compound 0.8 µM): 0.442; relative viability ([5]; first compound 2.53 µM): 0.355; relative viability ([5]; first compound 8 µM): 0.437; relative viability ([6]; first compound 0.08 µM): 0.387; relative viability ([6]; first compound 0.253 µM): 1.26; relative viability ([6]; first compound 0.8 µM): 0.465; relative viability ([6]; first compound 8 µM): 0.468
